What was measured:
Human melanocortin (MC5) = target: T1, Human melanocortin (MC5) (Homo sapiens, UniProt P33032); experiment: Radioligand binding, human melanocortin MC5 membranes, FlashPlate, [125I]-NDP-αMSH; details: compound at 10 μM; for A5 radioligand binding inhibition: human melanocortin MC5 membranes
T1 construct: purchased Perkin Elmer Biosignal
Method in brief: (§1)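 Cloned human receptor membranes were coated onto FlashPlate wells and incubated with radioligand and compound (added from a 0.5 mM DMSO daughter plate) for 1 hour at room temperature in the dark. Scintillation counting gave percent inhibition, with DMSO defining total and reference ligand defining non-specific binding.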

[1] = target: T2, Human neuropeptide Y (NPY-Y1) (Homo sapiens, UniProt P25929); experiment: Radioligand binding, human neuropeptide Y NPY-Y1 membranes, FlashPlate, [125I]-PYY; details: compound at 10 μM; for A9 radioligand binding inhibition: human NPY-Y1 membranes
T2 construct: purchased Perkin Elmer Biosignal
T2 sequence (P25929 1-384): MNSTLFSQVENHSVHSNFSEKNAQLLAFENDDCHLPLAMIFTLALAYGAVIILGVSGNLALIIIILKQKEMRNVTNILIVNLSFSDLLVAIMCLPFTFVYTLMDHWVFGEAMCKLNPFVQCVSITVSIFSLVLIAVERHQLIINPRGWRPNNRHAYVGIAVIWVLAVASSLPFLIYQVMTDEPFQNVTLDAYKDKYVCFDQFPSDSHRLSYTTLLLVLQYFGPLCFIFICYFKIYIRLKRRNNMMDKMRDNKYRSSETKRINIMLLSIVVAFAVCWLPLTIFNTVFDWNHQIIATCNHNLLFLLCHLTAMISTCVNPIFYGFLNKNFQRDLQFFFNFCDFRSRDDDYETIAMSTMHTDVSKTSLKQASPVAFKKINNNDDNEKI
Method in brief: as §1

Mouse urotensin (mUR2) = target: T3, Mouse urotensin (mUR2) (Mus musculus, UniProt Q8VIH9); experiment: Radioligand binding, mouse urotensin mUR2 membranes, FlashPlate, [125I]-Urotensin II; details: compound at 10 μM; for A11 radioligand binding inhibition: mouse urotensin mUR2 membranes
T3 construct: purchased Perkin Elmer Biosignal
T3 sequence (Q8VIH9 1-385): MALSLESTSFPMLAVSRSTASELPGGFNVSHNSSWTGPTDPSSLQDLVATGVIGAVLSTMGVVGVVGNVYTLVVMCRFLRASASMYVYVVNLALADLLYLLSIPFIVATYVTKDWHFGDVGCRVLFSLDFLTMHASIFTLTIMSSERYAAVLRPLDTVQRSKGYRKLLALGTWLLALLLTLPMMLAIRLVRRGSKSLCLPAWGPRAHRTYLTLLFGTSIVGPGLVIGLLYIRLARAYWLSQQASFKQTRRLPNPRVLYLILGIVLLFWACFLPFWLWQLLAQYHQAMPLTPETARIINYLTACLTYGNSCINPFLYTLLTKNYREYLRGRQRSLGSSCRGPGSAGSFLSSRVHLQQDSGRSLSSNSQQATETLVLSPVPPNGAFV
Method in brief: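 Cloned mouse urotensin (mUR2) receptor membranes from Perkin Elmer Biosignal were immobilized in FlashPlate microplates using a proprietary coating. Each well got 19.5 μl buffer, then 0.5 μl of DMSO, reference ligand, or compound. Adding 5 μl of [125I]-Urotensin II, diluted to 5× final concentration in binding buffer, started binding. Plates were sealed with TopSeal-A and incubated 1 hour at room temperature in the dark. Wells were counted for 30 seconds each on a TopCount after a 60-second delay, and percentage inhibition was calculated.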

Human Melanocortin (MC4) = target: T4, Human Melanocortin (MC4) (Homo sapiens, UniProt P32245); experiment: Radioligand binding, human melanocortin MC4 membranes, FlashPlate, [125I]-NDP-αMSH; details: compound at 10 μM; for A4 radioligand binding inhibition: human melanocortin MC4 membranes
T4 construct: purchased Perkin Elmer Biosignal
T4 sequence (P32245 whole entry): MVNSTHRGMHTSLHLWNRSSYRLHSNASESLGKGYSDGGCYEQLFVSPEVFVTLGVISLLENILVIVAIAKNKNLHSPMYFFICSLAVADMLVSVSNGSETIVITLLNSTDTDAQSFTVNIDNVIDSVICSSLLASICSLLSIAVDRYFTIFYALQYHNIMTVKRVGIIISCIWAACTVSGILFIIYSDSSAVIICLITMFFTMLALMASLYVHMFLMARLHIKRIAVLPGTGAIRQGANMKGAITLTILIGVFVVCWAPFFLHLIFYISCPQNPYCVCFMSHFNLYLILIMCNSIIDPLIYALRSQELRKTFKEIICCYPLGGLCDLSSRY
Method in brief: as §1

Human κ-Opioid (KOP) = target: T5, Human κ-Opioid (KOP) (Homo sapiens, UniProt P41145); experiment: Radioligand binding, human κ-opioid (KOP) membranes, filtration, [3H]-Diprenorphine; details: compound at 10 μM; for A2 radioligand binding inhibition: human κ-opioid (KOP) membranes
T5 construct: purchased Perkin Elmer Biosignal
T5 sequence (P41145 whole entry): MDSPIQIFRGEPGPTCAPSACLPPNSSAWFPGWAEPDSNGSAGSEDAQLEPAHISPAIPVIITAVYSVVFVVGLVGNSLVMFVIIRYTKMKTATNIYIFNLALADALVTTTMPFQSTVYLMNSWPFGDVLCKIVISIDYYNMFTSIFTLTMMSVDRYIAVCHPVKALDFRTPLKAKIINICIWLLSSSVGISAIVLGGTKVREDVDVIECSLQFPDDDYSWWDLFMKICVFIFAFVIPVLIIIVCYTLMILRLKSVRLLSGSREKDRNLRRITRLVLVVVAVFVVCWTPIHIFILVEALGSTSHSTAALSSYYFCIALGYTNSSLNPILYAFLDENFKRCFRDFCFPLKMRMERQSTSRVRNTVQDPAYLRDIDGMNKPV
Method in brief: (§2)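 Membranes from cloned human receptors were incubated with compound and radioligand for 1 hour at room temperature. Bound ligand was collected on 0.3% PEI-soaked filters, washed with cold 50 mM Tris-HCl pH 7.4, and counted by scintillation. Percent inhibition was computed against DMSO totals and reference-ligand nonspecific wells.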

Human opioid (ORL1) = target: T6, Human opioid (ORL1) (Homo sapiens, UniProt P41146); experiment: Radioligand binding, human opioid ORL1 membranes, FlashPlate, [125I]-Nociceptin; details: compound at 10 μM; for A10 radioligand binding inhibition: human ORL1 membranes
T6 construct: purchased Perkin Elmer Biosignal
T6 sequence (P41146 whole entry): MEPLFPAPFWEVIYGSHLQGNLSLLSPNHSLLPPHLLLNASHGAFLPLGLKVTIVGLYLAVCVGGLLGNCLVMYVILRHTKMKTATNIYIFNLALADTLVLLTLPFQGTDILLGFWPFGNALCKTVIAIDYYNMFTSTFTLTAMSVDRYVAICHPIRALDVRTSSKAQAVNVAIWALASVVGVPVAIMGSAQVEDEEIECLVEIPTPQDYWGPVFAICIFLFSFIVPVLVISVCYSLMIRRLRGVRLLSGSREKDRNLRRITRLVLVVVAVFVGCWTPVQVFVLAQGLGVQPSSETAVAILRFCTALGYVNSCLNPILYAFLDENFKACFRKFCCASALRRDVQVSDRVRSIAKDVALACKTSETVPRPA
Method in brief: as §1

Human Melanocortin (MC3) = target: T7, Human Melanocortin (MC3) (Homo sapiens, UniProt P41968); experiment: Radioligand binding, human melanocortin MC3 membranes, FlashPlate, [125I]-NDP-αMSH; details: compound at 10 μM; for A3 radioligand binding inhibition: human melanocortin MC3 membranes
T7 construct: purchased Perkin Elmer Biosignal
T7 sequence (P41968 whole entry): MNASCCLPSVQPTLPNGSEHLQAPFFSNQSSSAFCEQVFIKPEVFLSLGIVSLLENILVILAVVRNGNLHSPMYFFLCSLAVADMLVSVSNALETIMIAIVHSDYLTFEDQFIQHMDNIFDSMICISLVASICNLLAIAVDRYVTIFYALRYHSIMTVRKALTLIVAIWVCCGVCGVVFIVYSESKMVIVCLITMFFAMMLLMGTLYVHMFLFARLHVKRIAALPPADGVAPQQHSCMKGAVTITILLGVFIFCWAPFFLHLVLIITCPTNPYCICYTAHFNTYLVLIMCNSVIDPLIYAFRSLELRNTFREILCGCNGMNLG
Method in brief: as §1

Human neurokinin (NK1) = target: T8, Human neurokinin (NK1) (Homo sapiens, UniProt P25103); experiment: Radioligand binding, human neurokinin NK1 membranes, filtration, [125I]-Substance P; details: compound at 10 μM; for A8 radioligand binding inhibition: human neurokinin NK1 membranes
T8 construct: purchased Perkin Elmer Biosignal
T8 sequence (P25103 whole entry): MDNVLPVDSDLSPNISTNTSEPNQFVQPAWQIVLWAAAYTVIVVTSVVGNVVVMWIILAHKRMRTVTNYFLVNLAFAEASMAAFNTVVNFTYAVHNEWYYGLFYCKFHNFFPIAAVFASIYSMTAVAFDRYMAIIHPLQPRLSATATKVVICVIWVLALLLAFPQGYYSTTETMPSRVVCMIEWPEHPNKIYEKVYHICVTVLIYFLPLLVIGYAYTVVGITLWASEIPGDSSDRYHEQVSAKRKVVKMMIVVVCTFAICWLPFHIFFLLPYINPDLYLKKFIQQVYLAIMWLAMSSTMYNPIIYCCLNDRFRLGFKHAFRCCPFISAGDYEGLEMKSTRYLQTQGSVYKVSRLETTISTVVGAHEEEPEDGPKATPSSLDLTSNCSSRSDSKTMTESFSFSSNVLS
Method in brief: as §2

[2] = target: T9, Human melanin-concentrating hormone (MCH1) (Homo sapiens, UniProt Q99705); experiment: Radioligand binding, human melanin-concentrating hormone MCH1 membranes, FlashPlate, [125I]-S36057; details: compound at 10 μM; for A6: inhibition of radioligand binding, human melanin-concentrating hormone (MCH1): [125I]-S36057; for A6 radioligand binding inhibition: human MCH1 membranes
T9 construct: purchased Perkin Elmer Biosignal
T9 sequence (Q99705 whole entry): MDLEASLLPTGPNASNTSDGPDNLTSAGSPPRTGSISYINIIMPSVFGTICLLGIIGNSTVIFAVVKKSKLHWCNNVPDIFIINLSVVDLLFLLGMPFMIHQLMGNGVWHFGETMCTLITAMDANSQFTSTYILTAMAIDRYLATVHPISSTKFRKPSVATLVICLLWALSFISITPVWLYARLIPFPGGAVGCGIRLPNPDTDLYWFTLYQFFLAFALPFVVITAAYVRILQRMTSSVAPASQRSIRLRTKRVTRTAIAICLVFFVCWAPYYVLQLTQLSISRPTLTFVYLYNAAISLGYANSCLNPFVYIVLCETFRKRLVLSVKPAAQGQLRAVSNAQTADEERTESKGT
Method in brief: as §1

Human μ-opioid (MOP) = target: T10, Human μ-opioid (MOP) (Homo sapiens, UniProt P35372); experiment: Radioligand binding, human μ-opioid (MOP) membranes, FlashPlate, [3H]-Naloxone; details: compound at 10 μM; for A7 radioligand binding inhibition: human μ-opioid (MOP) membranes
T10 construct: purchased Perkin Elmer Biosignal
T10 sequence (P35372 whole entry): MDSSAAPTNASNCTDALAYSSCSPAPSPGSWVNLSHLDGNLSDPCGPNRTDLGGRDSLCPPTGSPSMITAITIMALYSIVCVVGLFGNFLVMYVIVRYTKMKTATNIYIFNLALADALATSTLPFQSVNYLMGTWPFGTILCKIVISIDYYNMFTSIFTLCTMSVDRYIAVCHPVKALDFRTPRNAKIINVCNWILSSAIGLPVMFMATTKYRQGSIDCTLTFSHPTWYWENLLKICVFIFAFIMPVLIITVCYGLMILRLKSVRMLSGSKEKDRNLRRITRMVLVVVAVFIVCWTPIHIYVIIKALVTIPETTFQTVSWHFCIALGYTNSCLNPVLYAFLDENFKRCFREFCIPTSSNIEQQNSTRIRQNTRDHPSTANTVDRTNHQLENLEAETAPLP
Method in brief: as §1

Human δ-opioid (DOP) = target: T11, Human δ-opioid (DOP) (Homo sapiens, UniProt P41143); experiment: Radioligand binding, human δ-opioid (DOP) membranes, FlashPlate, [3H]-Bremazocine; details: compound at 10 μM; for A1 radioligand binding inhibition: human δ-opioid (DOP) membranes
T11 construct: purchased Perkin Elmer Biosignal
T11 sequence (P41143 whole entry): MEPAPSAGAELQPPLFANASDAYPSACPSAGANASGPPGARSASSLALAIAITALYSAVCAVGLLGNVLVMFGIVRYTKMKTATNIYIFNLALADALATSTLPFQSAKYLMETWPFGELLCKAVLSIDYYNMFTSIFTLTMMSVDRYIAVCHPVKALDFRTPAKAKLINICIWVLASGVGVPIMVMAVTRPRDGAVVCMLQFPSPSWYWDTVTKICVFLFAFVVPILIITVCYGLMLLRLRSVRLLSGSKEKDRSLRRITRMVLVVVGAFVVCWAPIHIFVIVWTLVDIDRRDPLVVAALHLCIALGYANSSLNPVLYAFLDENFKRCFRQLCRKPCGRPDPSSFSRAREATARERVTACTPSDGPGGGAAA
Method in brief: as §1

T1 sequence (P33032 whole entry): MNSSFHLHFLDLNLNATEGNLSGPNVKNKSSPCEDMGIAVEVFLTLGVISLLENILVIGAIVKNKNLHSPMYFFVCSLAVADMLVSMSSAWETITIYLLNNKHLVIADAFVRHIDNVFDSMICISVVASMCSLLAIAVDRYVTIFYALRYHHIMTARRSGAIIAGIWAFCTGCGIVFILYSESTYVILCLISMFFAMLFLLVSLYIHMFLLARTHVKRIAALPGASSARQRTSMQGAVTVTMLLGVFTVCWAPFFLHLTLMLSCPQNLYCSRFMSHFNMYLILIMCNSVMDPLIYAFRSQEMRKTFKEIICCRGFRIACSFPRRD

NCCCC(=O)NC1C(OCc2ccc(Cl)cc2)OC(COCc2ccccc2)C(O)C1OCc1ccc(Cl)cc1 (single isomer, unassigned) [compound 491]
A5: inhibition of radioligand binding, human melanocortin (MC5) (Human melanocortin (MC5); [125I]-NDP-αMSH, 10 µM): − (“−” indicates less than 50% inhibition at 10 μM)
A9: inhibition of radioligand binding, human neuropeptide Y (NPY-Y1) ([1]; [125I]-PYY): − (“−” indicates less than 50% inhibition at 10 μM)
A11: inhibition of radioligand binding, mouse urotensin (mUR2) (Mouse urotensin (mUR2); [125I]-Urotensin II): − (“−” indicates less than 50% inhibition at 10 μM)
A4: inhibition of radioligand binding, human melanocortin (MC4) (Human Melanocortin (MC4); [125I]-NDP-αMSH, 10 µM): − (“−” indicates less than 50% inhibition at 10 μM)
A2: inhibition of radioligand binding, human κ-opioid (KOP) (Human κ-Opioid (KOP); [3H]-Diprenorphine): − (“−” indicates less than 50% inhibition at 10 μM)
A10: inhibition of radioligand binding, human opioid (ORL1) (Human opioid (ORL1); [125I]-Nociceptin): + (“+” indicates greater than 50% inhibition at 10 μM)
A3: inhibition of radioligand binding, human melanocortin (MC3) (Human Melanocortin (MC3); [125I]-NDP-αMSH): − (“−” indicates less than 50% inhibition at 10 μM)
A8: inhibition of radioligand binding, human neurokinin (NK1) (Human neurokinin (NK1); [125I]-Substance P): + (“+” indicates greater than 50% inhibition at 10 μM)
A6: inhibition of radioligand binding, human melanin-concentrating hormone (MCH1) ([2]; 10 µM): − (“−” indicates less than 50% inhibition at 10 μM)
A7: inhibition of radioligand binding, human μ-opioid (MOP) (Human μ-opioid (MOP); [3H]-Naloxone): − (“−” indicates less than 50% inhibition at 10 μM)
A1: inhibition of radioligand binding, human δ-opioid (DOP) (Human δ-opioid (DOP); [3H]-Bremazocine): − (“−” indicates less than 50% inhibition at 10 μM)

N=C(N)NCC(=O)N[C@H]1C(OCc2ccc(Cl)cc2)O[C@H](COCc2ccc3ccccc3c2)[C@@H](O)[C@@H]1OCc1ccc2ccccc2c1 (stereo partly shown) [compound 512]
A5: inhibition of radioligand binding, human melanocortin (MC5) (Human melanocortin (MC5); [125I]-NDP-αMSH): + (“+” indicates greater than 50% inhibition at 10 μM)
A9: inhibition of radioligand binding, human neuropeptide Y (NPY-Y1) ([1]; [125I]-PYY, 10 µM): − (“−” indicates less than 50% inhibition at 10 μM)
A11: inhibition of radioligand binding, mouse urotensin (mUR2) (Mouse urotensin (mUR2); [125I]-Urotensin II): − (“−” indicates less than 50% inhibition at 10 μM)
A4: inhibition of radioligand binding, human melanocortin (MC4) (Human Melanocortin (MC4); [125I]-NDP-αMSH): + (“+” indicates greater than 50% inhibition at 10 μM)
A2: inhibition of radioligand binding, human κ-opioid (KOP) (Human κ-Opioid (KOP); [3H]-Diprenorphine, 10 µM): − (“−” indicates less than 50% inhibition at 10 μM)
A10: inhibition of radioligand binding, human opioid (ORL1) (Human opioid (ORL1); [125I]-Nociceptin): + (“+” indicates greater than 50% inhibition at 10 μM)
A3: inhibition of radioligand binding, human melanocortin (MC3) (Human Melanocortin (MC3); [125I]-NDP-αMSH): + (“+” indicates greater than 50% inhibition at 10 μM)
A8: inhibition of radioligand binding, human neurokinin (NK1) (Human neurokinin (NK1); [125I]-Substance P): + (“+” indicates greater than 50% inhibition at 10 μM)
A6: inhibition of radioligand binding, human melanin-concentrating hormone (MCH1) [2]: + (“+” indicates greater than 50% inhibition at 10 μM)
A7: inhibition of radioligand binding, human μ-opioid (MOP) (Human μ-opioid (MOP); [3H]-Naloxone): + (“+” indicates greater than 50% inhibition at 10 μM)
A1: inhibition of radioligand binding, human δ-opioid (DOP) (Human δ-opioid (DOP); [3H]-Bremazocine): − (“−” indicates less than 50% inhibition at 10 μM)

CO[C@H]1[C@H](O)[C@@H](COCc2ccc(-c3ccccc3)cc2)OC(OCc2ccc(-c3ccccc3)cc2)[C@@H]1NC(=O)CCCN (stereo partly shown) [compound 53]
A5 radioligand binding inhibition (Human melanocortin (MC5)): − (“−” indicates less than 50% inhibition at 10 μM)
A9 radioligand binding inhibition [1]: − (“−” indicates less than 50% inhibition at 10 μM)
A11 radioligand binding inhibition (Mouse urotensin (mUR2)): − (“−” indicates less than 50% inhibition at 10 μM)
A4 radioligand binding inhibition (Human Melanocortin (MC4)): − (“−” indicates less than 50% inhibition at 10 μM)
A2 radioligand binding inhibition (Human κ-Opioid (KOP)): − (“−” indicates less than 50% inhibition at 10 μM)
A10 radioligand binding inhibition (Human opioid (ORL1)): − (“−” indicates less than 50% inhibition at 10 μM)
A3 radioligand binding inhibition (Human Melanocortin (MC3)): − (“−” indicates less than 50% inhibition at 10 μM)
A8 radioligand binding inhibition (Human neurokinin (NK1)): − (“−” indicates less than 50% inhibition at 10 μM)
A6 radioligand binding inhibition [2]: + (“+” indicates greater than 50% inhibition at 10 μM)
A7 radioligand binding inhibition (Human μ-opioid (MOP)): − (“−” indicates less than 50% inhibition at 10 μM)
A1 radioligand binding inhibition (Human δ-opioid (DOP)): − (“−” indicates less than 50% inhibition at 10 μM)

COCC1OC(OCCc2ccccc2)C(NC(=O)CNC(=N)N)C(OCc2ccc(Cl)cc2)C1O (stereo not shown) [compound 220]
A5: inhibition of radioligand binding (Human melanocortin (MC5); [125I]-NDP-αMSH, FlashPlate): + (“+” indicates greater than 50% inhibition at 10 μM)
A9: inhibition of radioligand binding ([1]; [125I]-PYY, FlashPlate): − (“−” indicates less than 50% inhibition at 10 μM)
A11: inhibition of radioligand binding (Mouse urotensin (mUR2); [125I]-Urotensin II, FlashPlate): − (“−” indicates less than 50% inhibition at 10 μM)
A4: inhibition of radioligand binding (Human Melanocortin (MC4); [125I]-NDP-αMSH, FlashPlate): + (“+” indicates greater than 50% inhibition at 10 μM)
A2: inhibition of radioligand binding (Human κ-Opioid (KOP); [3H]-Diprenorphine, filtration): − (“−” indicates less than 50% inhibition at 10 μM)
A10: inhibition of radioligand binding (Human opioid (ORL1); [125I]-Nociceptin, FlashPlate): − (“−” indicates less than 50% inhibition at 10 μM)
A3: inhibition of radioligand binding (Human Melanocortin (MC3); [125I]-NDP-αMSH, FlashPlate): + (“+” indicates greater than 50% inhibition at 10 μM)
A8: inhibition of radioligand binding (Human neurokinin (NK1); [125I]-Substance P, filtration): + (“+” indicates greater than 50% inhibition at 10 μM)
A6: inhibition of radioligand binding ([2]; [125I]-S36057, FlashPlate): − (“−” indicates less than 50% inhibition at 10 μM)
A7: inhibition of radioligand binding (Human μ-opioid (MOP); [3H]-Naloxone, FlashPlate): − (“−” indicates less than 50% inhibition at 10 μM)
A1: inhibition of radioligand binding (Human δ-opioid (DOP); [3H]-Bremazocine, FlashPlate): − (“−” indicates less than 50% inhibition at 10 μM)

CO[C@H]1[C@H](O)[C@@H](COCc2ccc(-c3ccccc3)cc2)OC(OCc2ccc3ccccc3c2)[C@@H]1NC(=O)CCCNC(=N)N (stereo partly shown) [compound 69]
A5 radioligand binding inhibition (Human melanocortin (MC5)): + (“+” indicates greater than 50% inhibition at 10 μM)
A9 radioligand binding inhibition [1]: − (“−” indicates less than 50% inhibition at 10 μM)
A11 radioligand binding inhibition (Mouse urotensin (mUR2)): − (“−” indicates less than 50% inhibition at 10 μM)
A4 radioligand binding inhibition (Human Melanocortin (MC4)): + (“+” indicates greater than 50% inhibition at 10 μM)
A2 radioligand binding inhibition (Human κ-Opioid (KOP)): − (“−” indicates less than 50% inhibition at 10 μM)
A10 radioligand binding inhibition (Human opioid (ORL1)): + (“+” indicates greater than 50% inhibition at 10 μM)
A3 radioligand binding inhibition (Human Melanocortin (MC3)): + (“+” indicates greater than 50% inhibition at 10 μM)
A8 radioligand binding inhibition (Human neurokinin (NK1)): + (“+” indicates greater than 50% inhibition at 10 μM)
A6 radioligand binding inhibition [2]: + (“+” indicates greater than 50% inhibition at 10 μM)
A7 radioligand binding inhibition (Human μ-opioid (MOP)): + (“+” indicates greater than 50% inhibition at 10 μM)
A1 radioligand binding inhibition (Human δ-opioid (DOP)): − (“−” indicates less than 50% inhibition at 10 μM)
